Laboratory results as given in patent US20140080162A1, “FLUORESCENCE LIFETIME EPIGENETICS ASSAYS” (ALMAC SCIENCES (SCOTLAND) LIMITED, priority 2011, published 2014).
Read-outs that look alike come from different tables or passages of the source.

Columns and labels:
PCAF [1] = biological target: T1, PCAF (Homo sapiens, UniProt Q92831); conditions: literature (Poux et al. 2002); read-out: reported KM for AcCoA; cited from earlier work
T1 construct: purchased Enzo Life Sciences

PCAF [2] = biological target: T1, PCAF; experiment: PCAF FLT protease protection assay; format: biochemical; conditions: peptide 17 (1 μM), 125 nM PCAF, 2 h; read-out: KM (app) for AcCoA
Description: The dependence of the PCAF assay on AcCoA concentration was investigated. The assay was performed in a 384-well microplate at room temperature for 2 h in assay buffer (20 μl) using 125 nM PCAF and 1 μM peptide 17. Concentrations of AcCoA were varied from 25 μM-0.02 μM.
For AcCoA titrations, to wells containing varying concentrations of AcCoA (5 μl in assay buffer) was added 5 μl of peptide 17 in assay buffer followed by 10 μl of PCAF in assay buffer. […] Following a further 90 min incubation at room temperature, FLTs were measured. All measurements were performed in triplicate.

JHDM1A = biological target: T2, JHDM1A (Homo sapiens, UniProt Q9Y2K7); experiment: JHDM1A FLT protease protection assay; format: biochemical; conditions: peptide 10 1 μM, JHDM1A 150 nM, 5 h; Endo-LysC up to 120 min
T2 construct: purchased BPS BioScience (via AMSBio, UK)
T2 sequence (Q9Y2K7 1-1162): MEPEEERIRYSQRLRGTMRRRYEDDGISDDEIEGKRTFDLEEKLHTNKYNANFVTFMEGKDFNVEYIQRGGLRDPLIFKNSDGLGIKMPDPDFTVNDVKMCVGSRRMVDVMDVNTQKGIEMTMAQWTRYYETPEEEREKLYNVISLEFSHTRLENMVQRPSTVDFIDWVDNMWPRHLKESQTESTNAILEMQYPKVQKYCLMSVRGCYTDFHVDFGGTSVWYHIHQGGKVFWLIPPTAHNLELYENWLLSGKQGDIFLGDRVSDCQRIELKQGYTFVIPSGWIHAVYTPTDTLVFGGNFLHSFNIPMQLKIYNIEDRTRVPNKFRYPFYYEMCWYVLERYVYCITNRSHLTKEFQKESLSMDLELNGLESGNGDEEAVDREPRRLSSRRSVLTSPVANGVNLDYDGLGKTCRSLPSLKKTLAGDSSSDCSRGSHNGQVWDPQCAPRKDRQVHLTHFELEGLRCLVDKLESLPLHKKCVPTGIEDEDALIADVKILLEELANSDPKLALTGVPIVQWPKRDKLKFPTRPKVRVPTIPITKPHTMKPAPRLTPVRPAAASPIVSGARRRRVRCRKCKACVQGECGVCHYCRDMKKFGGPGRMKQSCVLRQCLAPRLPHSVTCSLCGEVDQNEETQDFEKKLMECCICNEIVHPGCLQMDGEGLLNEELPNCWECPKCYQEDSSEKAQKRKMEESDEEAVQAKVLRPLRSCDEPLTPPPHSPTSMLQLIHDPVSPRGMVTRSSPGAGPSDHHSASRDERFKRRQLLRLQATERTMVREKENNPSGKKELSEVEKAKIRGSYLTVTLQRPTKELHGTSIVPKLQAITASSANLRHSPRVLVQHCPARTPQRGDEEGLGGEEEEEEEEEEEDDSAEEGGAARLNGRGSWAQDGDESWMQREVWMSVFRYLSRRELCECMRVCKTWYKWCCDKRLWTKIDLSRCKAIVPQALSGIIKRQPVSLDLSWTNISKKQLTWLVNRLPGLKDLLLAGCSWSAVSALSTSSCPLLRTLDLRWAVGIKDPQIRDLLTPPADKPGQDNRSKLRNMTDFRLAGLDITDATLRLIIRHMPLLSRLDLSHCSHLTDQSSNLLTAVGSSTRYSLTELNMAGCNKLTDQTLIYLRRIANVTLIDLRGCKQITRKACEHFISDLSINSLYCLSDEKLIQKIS
Description: The assay was performed in a 20 μl volume in a 384-well black microplate and contained peptide 10 (1 μM) and JHDM1A enzyme (150 nM) in assay buffer (50 mM Tris, pH 7.4, 100 μM sodium ascorbate, 10 μM ammonium ferrous sulfate, 100 μM α-ketoglutarate, 0.01% Tween-20). Control wells containing peptide only were also included. After 5 h incubation at room temperature, 10 μl of Endo-LysC (30 nM) was added to the wells and the plate incubated at room temperature for up to 120 min. FLTs were then measured in triplicate on a NanoTaurus plate reader.
Assays were performed in a 384-well microplate at room temperature with an assay volume of 20 μl per well. To wells containing recombinant JHDM1A enzyme in assay buffer (10 μl) was added peptide 10 in assay buffer (10 μl). Two sets of control wells containing peptide 10 only were included. The plate was shaken and then sealed with a coverslip. The final concentration of JHDM1A in the assay was 150 nM and 1 μM for peptide 10. After incubation at room temperature for 5 h, Endo-LysC (10 μl in assay buffer; final concentration 10 nM) was added to assay wells and one set of control wells. To the other set of control wells was added 10 μl of assay buffer. Following incubation at room temperature for 120 min, the microplate was centrifuged at 500 rpm for 1 min and FLTs measured. All measurements were performed in triplicate.

T1 sequence (Q92831 whole entry): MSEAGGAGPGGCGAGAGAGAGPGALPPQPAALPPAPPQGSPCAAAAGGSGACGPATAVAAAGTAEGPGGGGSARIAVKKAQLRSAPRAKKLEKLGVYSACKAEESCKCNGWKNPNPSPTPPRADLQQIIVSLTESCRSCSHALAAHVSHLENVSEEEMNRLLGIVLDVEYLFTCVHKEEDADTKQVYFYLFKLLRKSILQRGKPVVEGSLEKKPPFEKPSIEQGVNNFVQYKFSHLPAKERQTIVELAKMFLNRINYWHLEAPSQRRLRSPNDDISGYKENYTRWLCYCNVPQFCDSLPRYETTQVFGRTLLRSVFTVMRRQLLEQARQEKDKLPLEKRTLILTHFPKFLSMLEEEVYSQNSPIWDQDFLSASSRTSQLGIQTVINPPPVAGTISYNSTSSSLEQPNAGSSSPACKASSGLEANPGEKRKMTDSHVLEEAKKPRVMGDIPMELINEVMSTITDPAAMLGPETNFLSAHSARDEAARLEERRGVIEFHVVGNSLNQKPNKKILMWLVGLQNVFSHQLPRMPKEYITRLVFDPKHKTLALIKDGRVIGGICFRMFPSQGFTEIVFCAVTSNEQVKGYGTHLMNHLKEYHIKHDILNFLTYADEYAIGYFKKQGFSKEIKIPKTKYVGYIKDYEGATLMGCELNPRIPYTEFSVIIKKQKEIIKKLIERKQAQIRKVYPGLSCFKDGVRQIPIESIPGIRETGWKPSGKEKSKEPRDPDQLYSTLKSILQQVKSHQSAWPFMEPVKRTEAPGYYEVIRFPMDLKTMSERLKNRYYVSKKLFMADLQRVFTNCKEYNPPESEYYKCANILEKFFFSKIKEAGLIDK

increase in FLT following protease treatment after reaction with JHDM1A (JHDM1A) | Compound | Km (PCAF [1]) [µM] | Km (PCAF [2]) [µM]
– | CC(=O)SCCNC(=O)CCNC(=O)[C@H](O)C(C)(C)COP(=O)(O)OP(=O)(O)OC[C@H]1O[C@@H](n2cnc3c(N)ncnc32)[C@H](O)[C@@H]1OP(=O)(O)O [AcCoA, acetyl co-enzyme A] | 1.6 | 1.2
over 1 ns | 9AA-ATGGVK^36(Me)K(Me)PHRYW-CONH2 [peptide 10] | – | –
